Results as given in patent US20200085853A1, “TARGETING NR3B1 FOR TREATMENT OF NASH” (University of Southern California, priority 2018, published 2020).

Tests used:
[1] = tested on: oxygen consumption rate (OCR); experiment: Seahorse XF24 metabolic flux analysis (oxygen consumption rate); assay type: cell-based
Description: Cells were cultured on XF24 plates during experiment. The mitochondrial inhibitors, oligomycin (1 μM), FCCP (0.1 μM) and Rotenone (1 μM) were added after four measurements of basal OCR as described previously.^14 • RNA Isolation, Reverse Transcription and Quantitative PCR

[2] = tested on: RXR; experiment: RXR agonist treatment, expression of lipogenic and triglyceride biosynthetic genes; assay type: cell-based; settings: FIG. 6A
Excerpt: To address how NR3B may inhibit the lipogenic and triglyceride synthesis process, the RNA-seq data for SREBP and Chrebp, two transcriptional factors directly involved in the biosynthesis of lipid was explored. […] RXR binds to both PPARg and LXR and has the potential to regulate lipid metabolism through its interaction with these two nuclear receptors. It was explored whether RXR activation alters the expression of the lipogenic and triglyceride biosynthetic genes.

## COc1cc(/C=C(\C#N)C(=O)Nc2nnc(C(F)(F)F)s2)ccc1OCc1ccc(C(F)(F)F)cc1C(F)(F)F [XCT 790]
[1]; 0.1 μM, FIG. 2A
  basal oxygen consumption rate (OCR): similar
  maximal oxygen consumption rate (OCR): similar

## C=C(c1ccc(C(=O)O)cc1)c1cc2c(cc1C)C(C)(C)CCC2(C)C [Bexarotene]
[1]; co-treatment with NR3B-PA, FIG. 6B
  effect on the NR3B-PA induced change of OCR: did not block
[2]
  expression of AGPAT3: induction
  expression of DGAT2: induction
  expression of Fasn: induction
